In this test the target is T1, human GPR40 (Homo sapiens, UniProt O14842).
T1 construct: host or cells: CHO cells
T1 sequence (O14842 whole entry): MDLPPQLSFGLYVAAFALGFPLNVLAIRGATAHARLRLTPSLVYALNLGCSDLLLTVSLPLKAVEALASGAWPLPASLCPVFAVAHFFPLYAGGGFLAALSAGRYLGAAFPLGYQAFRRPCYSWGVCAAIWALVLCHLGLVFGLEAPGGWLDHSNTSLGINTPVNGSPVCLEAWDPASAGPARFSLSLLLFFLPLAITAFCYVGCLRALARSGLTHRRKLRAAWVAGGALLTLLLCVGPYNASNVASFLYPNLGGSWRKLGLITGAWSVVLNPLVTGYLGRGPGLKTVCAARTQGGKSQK
Briefly: Cell-based aequorin assay using human GPR40. The settings on record: activation of human GPR40; CHO cells stably transfected with GPR40 and Aequorin; 0.01% HSA; aequorin luminescence. The protocol: Cell-based aequorin assays were employed to characterize the modulatory activity of compounds on the GPR40 signaling pathway. In an exemplary assay, CHO cells were stably transfected with both GPR40 and Aequorin (Euroscreen). Cells were detached from the tissue culture dish with 2 mL of trypsin (0.25% (w/v)). Trypsinization was halted with 28 mL of Hanks Buffered Salt Solution containing 20 mM Hepes (H/HBSS) and 0.01% fatty acid-free human serum albumin (HSA). Coelantrazine is added to 1 ug/mL, and the cells were incubated for 2 hours at room temperature. Compounds were dissolved in DMSO for preparation of 10 mM stock solutions. Compounds were diluted in H/HBSS containing 0.01% HSA. Serial dilutions of the test compounds were prepared to determine dose response.
Aequorin luminescence measurements were made using an EG&G Berthold 96-well luminometer, and the response was measured over a 20 second interval after cells and compounds were mixed. The maximum relative light units was plotted to determine dose response. The EC50 (effective concentration to reach 50% maximal response) was determined from the dose response plot.
Table 1 presents representative data (EC50 values) obtained for exemplary compounds of the invention for the activation of human GPR40. […]
`CC12CCC(c3ncc(COc4ccc([C@H](CC(=O)O)c5ccon5)cc4)nc31)C2(C)C` (stereo partly shown) [Example 83]: the EC50 – broadly, the concentration that produces a half-maximal response – was 1000 to 10000 nM.
Take `CS(=O)(=O)c1cc(COc2ccc([C@H](CC(=O)O)c3ccon3)cc2)ccc1OC(F)(F)F` [Example 19, (S)-3-(4-(3-(Methylsulfonyl)-4-(trifluoromethoxy)benzyloxy)-phenyl)-3-(isoxazol-3-yl)propanoic acid]: the EC50 lay in the range of 1000 to 10000 nM.
The value for `CC1(C)CCC=C1c1cc(COc2ccc([C@H](CC(=O)O)c3ccon3)cc2)ccc1OC(F)(F)F` [Example 38, (S)-3-(4-(3-(5,5-Dimethylcyclopent-1-enyl)-4-(trifluoromethoxy)benzyloxy)phenyl)-3-(isoxazol-3-yl)propanoic acid] was 10 to 100 nM; that for `O=C(O)C[C@@H](c1ccc(OCc2ccc(-c3ccc(C(F)(F)F)cc3)s2)cc1)c1ccon1` [Example 61, (3S)-3-(3-Isoxazolyl)-3-(4-(((5-(4-(trifluoromethyl)phenyl)-2-thienyl)methyl)oxy)phenyl)propanoic acid] was 10 to 100 nM; that for `CC(C)c1ccc(COc2ccc([C@H](CC(=O)O)c3ccon3)cc2)cc1OC(F)(F)F` [Example 37, (S)-3-(4-(4-Isopropyl-3-(trifluoromethoxy)benzyloxy)phenyl)-3-(isoxazol-3-yl)propanoic acid] was 10 to 100 nM.
The molecule `O=C(O)C[C@@H](c1ccc(OCc2noc(-c3ccccc3)n2)cc1)c1ccon1` [Example 63] displayed an EC50 of 1000 to 10000 nM.
As for `O=C(O)C[C@@H](c1ccc(OCc2ccc(C3=CCCC3)c(OC(F)(F)F)c2)cc1)c1ccon1` [Example 28, (S)-3-(4-(4-Cyclopentenyl-3-(trifluoromethoxy)benzyloxy)-phenyl)-3-(isoxazol-3-yl)propanoic acid], the concentration giving a half-maximal response (EC50) lay in the range of 10 to 100 nM.
The same measure for `Cc1ccc(-c2cc(COc3ccc([C@H](CC(=O)O)c4ccon4)cc3)c(C)o2)cc1` [Example 15, (S)-3-(Isoxazol-3-yl)-3-(4-((2-methyl-5-p-tolylfuran-3-yl)methoxy)phenyl)propanoic acid]: 10 to 100 nM; for `Cc1ccc(-c2nc(C)c(COc3ccc([C@@H](CC(=O)O)c4ccon4)cc3)s2)cc1` [Example 59, (R)-3-(Isoxazol-3-yl)-3-(4-((4-methyl-2-(4-methylphenyl)thiazol-5-yl)methoxy)phenyl)propanoic acid]: 1000 to 10000 nM; for `Cc1nc(-c2cccc(C(F)(F)F)c2)sc1COc1ccc([C@H](CC(=O)O)c2ccon2)cc1` [Example 72, (3S)-3-(Isoxazol-3-yl)-3-(4-((4-methyl-2-(3-(trifluoromethyl)phenyl)thiazol-5-yl)methoxy)phenyl)propanoic acid]: 10 to 100 nM.
The same measure for `O=C(O)C[C@@H](c1ccc(OCc2noc(-c3ccc(C(F)(F)F)cc3)n2)cc1)c1ccon1` [Example 65]: 1000 to 10000 nM.
The same measure for `O=C(O)C[C@@H](c1ccc(OCCCOc2ccc(C(F)(F)F)cc2)cc1)c1ccon1` [Example 48]: 100 to 1000 nM; for `O=C(O)C[C@@H](c1ccc(OCc2cccc(S(=O)(=O)c3ccc(C(F)(F)F)cc3)c2)cc1)c1ccon1` [Example 33, (S)-3-(4-(3-(4-(Trifluoromethyl)phenylsulfonyl)benzyloxy)-phenyl)-3-(isoxazol-3-yl)propanoic acid]: 100 to 1000 nM.
As for `Cc1nc(-c2ccc(OC(C)C)c(Cl)c2)sc1COc1ccc([C@H](CC(=O)O)c2ccon2)cc1` [Example 81], the concentration for a half-maximal effect (EC50) lay within 10 to 100 nM.
The value for `Cc1nc(-c2ccc(C(F)(F)F)cc2)sc1COc1ccc(C(CC(=O)O)C2=NOCC2)cc1` (stereo not shown) [Example 8] was 100 to 1000 nM; that for `CC1(C)CCC(C)(C)c2cc(COc3ccc([C@@H](CC(=O)O)c4ccon4)cc3)ccc21` [Example 41, (R)-3-(Isoxazol-3-yl)-3-(4-((5,5,8,8-tetramethyl-5,6,7,8-tetrahydronaphthalen-2-yl)methoxy)phenyl)propanoic acid] was 1000 to 10000 nM; that for `CCCCc1ccc(-c2ccc(COc3ccc([C@H](CC(=O)O)c4ccon4)cc3)s2)cc1` [Example 60, (3S)-3-(4-(((5-(4-butylphenyl)-2-thienyl)methyl)oxy)phenyl)-3-(3-isoxazolyl)propanoic acid] was 10 to 100 nM.
The value for `O=C(O)C[C@@H](c1ccc(OCc2nc(-c3cccc(C(F)(F)F)c3)no2)cc1)c1ccon1` [Example 68] was 1000 to 10000 nM; that for `O=C(O)C[C@@H](c1ccc(OCc2ccc(Cl)c(C(F)(F)F)c2)cc1)c1ccon1` [Example 21, (S)-3-(4-(4-Chloro-3-(trifluoromethyl)benzyloxy)phenyl)-3-(isoxazol-3-yl)propanoic acid] was 10 to 100 nM; that for `CCCCc1ccc(-c2nc(C)c(COc3ccc([C@H](CC(=O)O)c4ccon4)cc3)s2)cc1` [Example 77] was 10 to 100 nM.
Regarding `O=C(O)C[C@@H](c1ccc(OCc2ccc(OC(F)(F)F)c(C3CCCC3)c2)cc1)c1ccon1` [Example 23, (S)-3-(4-(3-Cyclopentyl-4-(trifluoromethoxy)benzyloxy)-phenyl)-3-(isoxazol-3-yl)propanoic acid], the EC50 lay within 10 to 100 nM.
The same measure for `Cc1nc(-c2ccc(C(C)(C)C)cc2)sc1COc1ccc([C@H](CC(=O)O)c2ccon2)cc1` [Example 76]: 10 to 100 nM; for `CC(C)(C)c1ccc(-c2noc(COc3ccc([C@H](CC(=O)O)c4ccon4)cc3)n2)cc1` [Example 70]: 100 to 1000 nM.
`Cn1nc(-c2ccc(C(F)(F)F)cc2)cc1COc1ccc([C@H](CC(=O)O)c2ccon2)cc1` [Example 16, (S)-3-(Isoxazol-3-yl)-3-(4-((1-methyl-3-(4-(trifluoromethyl)phenyl)-1H-pyrazol-5-yl)methoxy)phenyl)propanoic acid] displayed an EC50 of 100 to 1000 nM.
The value for `CC(C)(C)C(=O)Nc1cccc(COc2ccc([C@H](CC(=O)O)c3ccon3)cc2)c1` [Example 30, (S)-3-(4-(3-Pivalamidobenzyloxy)phenyl)-3-(isoxazol-3-yl)propanoic acid] was 1000 to 10000 nM.
Molecule `Cc1nc(-c2ccc(C(F)(F)F)cc2)sc1COc1ccc([C@H](CC(=O)O)c2ccon2)cc1` [Example 7, (S)-3-(Isoxazol-3-yl)-3-(4-((4-methyl-2-(4-(trifluoromethyl)phenyl)thiazol-5-yl)methoxy)phenyl)propanoic acid] came in with an EC50 of 10 to 100 nM.
The same measure for `Cc1c(Cl)cccc1-c1cccc(COc2ccc(C(CC(=O)O)c3ccon3)cc2)c1` (stereo not shown) [Example 1, 3-(4-(3-(3-Chloro-2-methylphenyl)benzyloxy)phenyl)-3-(isoxazol-3-yl)propanoic acid]: 10 to 100 nM; for `O=C(O)C[C@@H](c1ccc(OCc2ccc(OC(F)(F)F)c(Br)c2)cc1)c1ccon1` [Example 25, (S)-3-(4-(3-bromo-4-(trifluoromethoxy)benzyloxy)phenyl)-3-(isoxazol-3-yl)propanoic acid]: 10 to 100 nM.
The value for `CCOc1cc(Cl)ccc1-c1ccc(COc2ccc([C@@H](CC(=O)O)c3ccon3)cc2)cc1` [Example 5, (R)-3-(4-(4-(4-Chloro-2-ethoxyphenyl)benzyloxy)phenyl)-3-(isoxazol-3-yl)propanoic acid] was 1000 to 10000 nM; that for `Cc1nc(-c2ccc(CC(C)C)cc2)sc1COc1ccc([C@H](CC(=O)O)c2ccon2)cc1` [Example 78] was 10 to 100 nM.
The value for `CCN(CC)Cc1ccc(-c2nc(C)c(COc3ccc([C@H](CC(=O)O)c4ccon4)cc3)s2)cc1` [Example 54, (S)-3-(4-((2-(4-((Diethylamino)methyl)phenyl)-4-methylthiazol-5-yl)methoxy)phenyl)-3-(isoxazol-3-yl)propanoic acid] was 1000 to 10000 nM; that for `Cc1cc([C@@H](CC(=O)O)c2ccc(OCc3cccc(-c4ccc(C(F)(F)F)cc4)c3)cc2)no1` [Example 39, (S)-3-(4-(3-(4-(Trifluoromethyl)phenyl)benzyloxy)phenyl)-3-(5-methylisoxazol-3-yl)propanoic acid] was 100 to 10000 nM; that for `CCOCCOc1cc(COc2ccc([C@H](CC(=O)O)c3ccon3)cc2)c(Br)cc1C(C)(C)C` [Example 46, (S)-3-(4-(2-Bromo-4-tert-butyl-5-(2-ethoxyethoxy)benzyloxy)phenyl)-3-(isoxazol-3-yl)propanoic acid] was 100 to 1000 nM.
`COc1ccc(-c2nc(COc3ccc([C@H](CC(=O)O)c4ccon4)cc3)no2)cc1` [Example 11, (S)-3-(Isoxazol-3-yl)-3-(4-((5-(4-methoxyphenyl)-1,2,4-oxadiazol-3-yl)methoxy)phenyl)propanoic acid] gave an EC50 of 1000 to 10000 nM.
